What was measured:
human OS (U2OS) cells = experiment: U2OS xenograft in nude mice: OS growth and metastasis; type: in vivo, Balb/c nude mice; details: nude mice with implanted U2OS cells, 27 days
Description: Female Balb/c nude mice (n = 6, 8 weeks old) were purchased from the Experimental Animal Center of Jilin University. The mice were bred under temperature-controlled conditions at 22.6 ± 2 °C with a 12-h day/light cycle. All applicable institutional and national guidelines for the care and use of animals were followed and the animal experiments were approved by the Animal Care and Use Committee of China Medical University. The heterograft mouse model was established by subcutaneous injection of 2 × 10^8 human OS (U2OS) cells suspended in 0.2 ml medium into the root of the right thigh. […]
The mice were sacrificed. […] Histological alterations were evaluated using a fluorescence microscope (Nikon Eclipse Ti, Optical Apparatus Co., Ardmore, USA) and a confocal microscope (Carl Zeiss, LSM 780).
Tissues were fixed in 4% paraformaldehyde. […] The average number of deposits per section was calculated using Image-Pro Plus 6.0 (Media Cybernetics, USA). […]

U2OS cells [1] = experiment: Wound-healing assay; type: cell-based, human
Description: (§1) U2OS cells were divided into 8 groups: (1) Control group: without any treatment; (2) MT group: U2OS cells were added with 1 mM melatonin; (3) MT + ROCK activator group: U2OS cells were added with 1mM melatonin and 50 µM ROCK activator (pentanoic acid); (4) MT + ROCK inhibitor group: U2OS cells were added with 1mM melatonin and 50 µM ROCK inhibitor (ROCK inhibitor-2); (5) Mg–PCL group: U2OS cells were co-cultured with Mg–PCL scaffold; (6) Mg–PCL + MT group: U2OS cells were co-cultured with Mg–PCL scaffold loaded with melatonin; (7) Mg–PCL + MT + ROCK activator group: U2OS cells were co-cultured with Mg–PCL scaffold loaded with melatonin and added with 50 µM ROCK activator (pentanoic acid); and (8) Mg–PCL + MT + ROCK activator group: U2OS cells were co-cultured with Mg–PCL scaffold loaded with melatonin and added with 50 µM ROCK inhibitor (ROCK inhibitor-2).
The U2OS cells were plated at 8.5 × 10^5/well on 6-well plates for 48 h and were wounded by scratching with a pipette tip. They were subsequently incubated with DMEM containing 0.5% FBS. After repeated treatment at 0, 12, 24 and 48 h, the cells were photographed using a phase contrast microscope (Olympus, Japan).

U2OS cells [2] = experiment: CIC formation in U2OS cells (immunofluorescence, electron microscope); type: cell-based, human; details: immunofluorescence and electron microscope
Description: The cells were scrapped after treatment, collected by centrifugation, washed with PBS and fixed with 5% glutaraldehyde. After the cells were dehydrated, embedded, sectioned, stained, the mitophagosomes were observed by TEM. The quantity of CIC structures was calculated in 10 fields a view. After treatment, the cells were fixed with 4% paraformaldehyde at room temperature (23–25 °C) for 15 min. After PBS washing, cells were permeabilized with 0.2% Triton X-100 for 5 min. Sections were incubated in a blocking buffer containing 5% BSA for 30 min at room temperature (23–25 °C), followed by incubation with primary antibodies overnight at 4 °C. Secondary antibodies labeled with fluorescein (1:500, Abcam) were applied for 120 min. After incubating with 0.1% DAPI for 10 min and another wash with PBS, images were captured on a wide field fluorescent microscope (Olympus, Japan). Each experiment was repeated three times (total, n = 90 cells) and the fluorescence intensities were quantified with the ImageJ software. […] The cells were then washed with ice-cold PBS, and analyzed under a confocal laser scanning microscope (Olympus, Tokyo, Japan). […] Image-Pro Plus 6.0 (Media Cybernetics) was used for quantifying mitochondria.

U2OS cells [3] = experiment: Mitochondrial physiology of U2OS cells (fluorescence, Western blot, mtDNA, ATP, O2 consumption); type: cell-based, human; details: 24 h
Description: as §1
Cells or tissues were washed with ice-cold PBS and resuspended in lysis buffer (50 mM Tris–HCl, 150mM NaCl, 1% NP-40, 0.5% sodium deoxycholate, 0.1% sodium dodecyl sulfate) containing protease and phosphorylase inhibitor cocktails. After centrifugation at 12,000g for 30 min at 4 °C, the supernatant containing total protein was collected and quantified using the BCA protein concentration assay kit (Boster, Hubei, China). […] Immunoreactive bands were visualized by the EC3 imaging system (UVP Inc., California, USA), and quantified with the ImageJ software (NIH, USA). The ratios between the proteins of interest and loading controls of the same sample were calculated as relative content and expressed graphically. […]
After treatment, the cells were fixed with 4% paraformaldehyde at room temperature (23–25 °C) for 15 min. […] Each experiment was repeated three times (total, n = 90 cells) and the fluorescence intensities were quantified with the ImageJ software. […] The cells were then washed with ice-cold PBS, and analyzed under a confocal laser scanning microscope (Olympus, Tokyo, Japan). […] Image-Pro Plus 6.0 (Media Cybernetics) was used for quantifying mitochondria. […]

U2OS cells [4] = experiment: Transwell (Boyden chamber) cell invasion and migration assays; type: cell-based, human; details: 24 h
Description: as §1
To examine the effects of melatonin and CIC formation on the invasiveness of U2OS cells in vitro, we employed a modified Boyden chamber invasion assay with Matrigel coating. After treatment, the cells were seeded into the upper section of the Boyden chamber (Neuro Probe, Cabin John, MD, USA) at densities of 2.0 × 10^5/ml, and then incubated for 24 h at 37 °C. Finally, the cells were counted under a light microscope. Cell migration was measured by a cell invasion assay without Matrigel coating.

[5] = In vivo safety of melatonin in mice (body weight, HE of main organs); details: tail vein, once every 2 days at 3 mg each time, 30 days
Description: Tissues were fixed in 4% paraformaldehyde. After fixation, the samples were decalcified in 10% EDTA for 21 days before paraffin embedding and then sliced microtomically into a systematic series of 16 μm sections. Standard HE staining was performed and photographed. The average number of deposits per section was calculated using Image-Pro Plus 6.0 (Media Cybernetics, USA).
The safety of melatonin in mice was further studied by injecting melatonin into the tail vein of mice once every 2 days at 3 mg each time. After 30 days, the heart, liver, spleen, lung, kidney and other important organs were collected, sectioned and stained with HE for microscopy observation. […] Along with the increasing of the mass ratio of melatonin and SunP Gel G1, the LE and LC were increased. The LE reached peak at mass ratio of 1:2 and was decreased at mass ratio of 2:1. The mass ratio of 1:2 was selected for further experiments.

[6] = In vitro release of melatonin (dialysis bag, PBS pH 7.4); type: physicochemical; details: at 10 h; PBS pH 7.4, 37 °C
Description: Standard curve of melatonin was first draw using PBS (pH = 7.4) as solvent under the wavelength of the maximum absorption peak (278 nm). […] The dialysis bag was then placed in a beaker containing the same pH PBS buffer and was vibrated horizontally in a constant temperature shaker (37 °C ± 0.5 °C) with a vibration frequency of 50 times/min. The release liquid (5 ml) was replaced with same amounts of fresh PBS at selected time intervals. The absorbance value of the solution was measured at 278 nm and the drug release rate was calculated as follow: R(%)=ρnV+Vi∑tn-iρi/MD×100 where R means the cumulative drug release rate (%); n means the number of sampling. ρn represents the mass concentration (g/l) of the drug in the nth release. V represents the total volume of the release liquid. ρi represents the mass concentration (g/l) of the drug in the ith release, Vi represents the volume of the release liquid at the ith sampling and MD means the mass of drug loaded (g).

[7] = test system: PKA-Rho/ROCK signaling pathway; experiment: Western blot of PKA, p-PKA, Rho, ROCK in U2OS cells; type: cell-based, human
Description: Cells or tissues were washed with ice-cold PBS and resuspended in lysis buffer (50 mM Tris–HCl, 150mM NaCl, 1% NP-40, 0.5% sodium deoxycholate, 0.1% sodium dodecyl sulfate) containing protease and phosphorylase inhibitor cocktails. After centrifugation at 12,000g for 30 min at 4 °C, the supernatant containing total protein was collected and quantified using the BCA protein concentration assay kit (Boster, Hubei, China). The samples were separated by SDS-PAGE and then transferred to polyvinylidene difluoride (PVDF) membranes (Millipore, Massachusetts, USA) (210 mA, between 30 and 120 min according to the molecular mass of the protein). After blocking for 2 h with 5% non-fat milk, the PVDF membranes were incubated with the appropriate primary antibodies (1:500 or 1:1000 dilution) at 4 °C overnight. The blots were then incubated with anti-mouse or anti-rabbit IgG conjugated to horseradish peroxidase (1:5000 dilution) for 1 h at room temperature (23–25 °C). Immunoreactive bands were visualized by the EC3 imaging system (UVP Inc., California, USA), and quantified with the ImageJ software (NIH, USA). The ratios between the proteins of interest and loading controls of the same sample were calculated as relative content and expressed graphically. The results were averaged from three independent experiments.

COc1ccc2[nH]cc(CCNC(C)=O)c2c1 [melatonin, Melatonin]
cell apoptosis of xenograft tumors (TUNEL) (human OS (U2OS) cells): promoted | tumor weight of xenograft tumors (human OS (U2OS) cells): effectively inhibited | cell proliferation of xenograft tumors (Ki-67) (human OS (U2OS) cells; melatonin 40 mg kg−1 day−1 i.p. or loaded scaffold, ROCK activator/inhibitor 10 mg kg−1 day−1 i.p.): effectively inhibited | cell migrated area relative to control (wound healing) (U2OS cells [1]; U2OS cells): significantly decreased | scratch width (wound healing) (U2OS cells [1]; U2OS cells, 0, 12, 24 and 48 h): wider | number of CIC structure (U2OS cells [2]): significantly reduced | relative fluorescence of mitochondria (U2OS cells [3]; 1 mM melatonin, 50 µM ROCK activator/inhibitor): reduced | expression of mitochondrial biogenesis-related proteins PGC1α, NRF1 and TFAM (U2OS cells [3]; Western blot): downregulated | expression of mitochondrial biomarkers TOM20, COX-4l1 and ATP Synβ (U2OS cells [3]; Western blot): reduced | number of invaded and migrated cells (Transwell) (U2OS cells [4]): significantly lower | organ damage (HE staining of heart, liver, spleen, lung, kidney) [5]: no organ damage was observed | weight of mice [5]: stable without notable changes | cumulative release rate [6]: 96.3% | PKA phosphorylation (Western blot) [7]: promote PKA phosphorylation | Rho and ROCK expressions (Western blot) [7]: reduced

From paper PMC8418751, “3D-printing magnesium–polycaprolactone loaded with melatonin inhibits the development of osteosarcoma by regulating cell-in-cell structures” (Journal of Nanobiotechnology, 2021)
